Laboratory results published in the supplement of paper PMC11061612.

Columns and labels:
AZD1775 = compound: C=CCn1c(=O)c2cnc(Nc3ccc(N4CCN(C)CC4)cc3)nc2n1-c1cccc(C(C)(C)O)n1 [AZD1775]; conditions: max 3 µM
In short: (§1)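 Viability was measured with CellTiter-Glo 2.0 luminescence after 72 hours of dosing at a final DMSO of typically 0.2%, and scaled between blank-well and DMSO-well means. Beforehand, cancer cell lines sat 24 hours at 37°C and 5% CO2 in 1536-well plates in 7.5 μl DMEM/F12 or RPMI with 10% FBS. A non-linear mixed effects model fitted two-parameter logistic curves to the dose responses. The single-agent IC50 comes from these fits.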

SRA737 = compound: N#Cc1cnc(Nc2cc(NC[C@H]3CNCCO3)c(C(F)(F)F)cn2)cn1 [SRA737]; conditions: max 10 µM
In short: as §1

Lapatinib = compound: CS(=O)(=O)CCNCc1ccc(-c2ccc3ncnc(Nc4ccc(OCc5cccc(F)c5)c(Cl)c4)c3c2)o1 [Lapatinib]; conditions: max 10 µM
In short: as §1

AZD4320 = compound: CN(CC[C@H](CSC1=CC=CC=C1)NC2=C(C=C(C=C2)S(=O)(=O)NC(=O)C3=CC=C(C=C3)N4CCC(CC4)[C@H](C5=CC=CC=C5C6=CC=C(C=C6)Cl)O)S(=O)(=O)C(F)(F)F)CCO [AZD4320]; conditions: max 1 µM
In short: as §1

SN-38 = compound: CCc1c2c(nc3ccc(O)cc13)-c1cc3c(c(=O)n1C2)COC(=O)[C@]3(O)CC [SN-38]; conditions: max 0.3 µM
In short: as §1

Carboplatin = compound: C1CC(C1)(C(=O)[O-])C(=O)[O-].N.N.[Pt+2] [Carboplatin]; conditions: max 10 µM
In short: as §1

Gefitinib = compound: COc1cc2ncnc(Nc3ccc(F)c(Cl)c3)c2cc1OCCCN1CCOCC1 [Gefitinib]; conditions: max 10 µM
In short: as §1

Palbociclib = compound: CC(=O)c1c(C)c2cnc(Nc3ccc(N4CCNCC4)cn3)nc2n(C2CCCC2)c1=O [Palbociclib]; conditions: max 10 µM
In short: as §1

Dasatinib = compound: CC1=C(C(=CC=C1)Cl)NC(=O)C2=CN=C(S2)NC3=CC(=NC(=N3)C)N4CCN(CC4)CCO [Dasatinib]; conditions: max 2 µM
In short: as §1

Trametinib = compound: CC(=O)Nc1cccc(-n2c(=O)n(C3CC3)c(=O)c3c(Nc4ccc(I)cc4F)n(C)c(=O)c(C)c32)c1 [Trametinib]; conditions: max 1 µM
In short: as §1

AZD5363 = compound: C1CN(CCC1(C(=O)N[C@@H](CCO)C2=CC=C(C=C2)Cl)N)C3=NC=NC4=C3C=CN4 [AZD5363]; conditions: max 10 µM
In short: as §1

AZD5153 = compound: COc1nnc2ccc(N3CCC(c4ccc(OCCN5CCN(C)C(=O)[C@H]5C)cc4)CC3)nn12 [AZD5153]; conditions: max 1 µM
In short: as §1

MK-2206 = compound: NC1(c2ccc(-c3nc4ccn5c(=O)[nH]nc5c4cc3-c3ccccc3)cc2)CCC1 [MK-2206]; conditions: max 10 µM
In short: as §1

AZD1390 = compound: CC(C)n1c(=O)n(C)c2cnc3cc(F)c(-c4ccc(OCCCN5CCCCC5)nc4)cc3c21 [AZD1390]; conditions: max 0.3 µM
In short: as §1

Olaparib = compound: O=C(c1cc(Cc2n[nH]c(=O)c3ccccc23)ccc1F)N1CCN(C(=O)C2CC2)CC1 [Olaparib]; conditions: max 10 µM
In short: as §1

[1] = compound: O=C(Nc1ccc2[nH]nc(-c3ccncc3)c2c1)[C@@H]1CCN(CC(=O)N2CCN(c3ccc(-c4ncccn4)cc3)CC2)C1; conditions: max 5 µM
In short: as §1

Savolitinib = compound: C[C@@H](c1ccc2nccn2c1)n1nnc2ncc(-c3cnn(C)c3)nc21 [Savolitinib]; conditions: max 1 µM
In short: as §1

Selumetinib = compound: Cn1cnc2c(F)c(Nc3ccc(Br)cc3Cl)c(C(=O)NOCCO)cc21 [Selumetinib]; conditions: max 10 µM
In short: as §1

Etoposide = compound: COc1cc([C@@H]2c3cc4c(cc3[C@@H](O[C@@H]3O[C@@H]5CO[C@@H](C)O[C@H]5[C@H](O)[C@H]3O)[C@H]3COC(=O)[C@H]23)OCO4)cc(OC)c1O [Etoposide]; conditions: max 10 µM
In short: as §1

Crizotinib = compound: C[C@@H](Oc1cc(-c2cnn(C3CCNCC3)c2)cnc1N)c1c(Cl)ccc(F)c1Cl [Crizotinib]; conditions: max 10 µM
In short: as §1

AZD7648 = compound: Cc1cc2ncnn2cc1Nc1ncc2c(n1)n(C1CCOCC1)c(=O)n2C [AZD7648]; conditions: max 10 µM
In short: as §1

AZD2811 = compound: CCN(CCO)CCCOc1ccc2c(Nc3cc(CC(=O)Nc4cccc(F)c4)[nH]n3)ncnc2c1 [AZD2811]; conditions: max 1 µM
In short: as §1

Gemcitabine = compound: Nc1ccn([C@@H]2O[C@H](CO)[C@@H](O)C2(F)F)c(=O)n1 [Gemcitabine]; conditions: max 0.3 µM
In short: as §1

Venetoclax = compound: CC1(C)CCC(CN2CCN(c3ccc(C(=O)NS(=O)(=O)c4ccc(NCC5CCOCC5)c([N+](=O)[O-])c4)c(Oc4cnc5[nH]ccc5c4)c3)CC2)=C(c2ccc(Cl)cc2)C1 [Venetoclax]; conditions: max 1 µM
In short: as §1

Doxorubicin = compound: COc1cccc2c1C(=O)c1c(O)c3c(c(O)c1C2=O)C[C@@](O)(C(=O)CO)C[C@@H]3O[C@H]1C[C@H](N)[C@H](O)[C@H](C)O1 [Doxorubicin]; conditions: max 1 µM
In short: as §1

AZD8186 = compound: C[C@@H](Nc1cc(F)cc(F)c1)c1cc(C(=O)N(C)C)cc2c(=O)cc(N3CCOCC3)oc12 [AZD8186]; conditions: max 10 µM
In short: as §1

Prexasertib = compound: COc1cccc(OCCCN)c1-c1cc(Nc2cnc(C#N)cn2)n[nH]1 [Prexasertib]; conditions: max 1 µM
In short: as §1

SG3199 = compound: CC1=CN2[C@@H](C1)C=NC3=CC(=C(C=C3C2=O)OC)OCCCCCOC4=C(C=C5C(=C4)N=C[C@@H]6CC(=CN6C5=O)C)OC [SG3199]; conditions: max 0.001 µM
In short: as §1

Alisertib = compound: COc1cc(Nc2ncc3c(n2)-c2ccc(Cl)cc2C(c2c(F)cccc2OC)=NC3)ccc1C(=O)O [Alisertib]; conditions: max 10 µM
In short: as §1

AZD5991 = compound: Cc1c2c(nn1C)CSCc1cc(n(C)n1)CSc1cc(c3ccccc3c1)OCCCc1c(C(=O)O)n(C)c3c-2c(Cl)ccc13 [AZD5991]; conditions: max 1 µM
In short: as §1

AZD0156 = compound: CN(C)CCCOc1ccc(-c2ccc3ncc4c(c3c2)n(C2CCOCC2)c(=O)n4C)cn1 [AZD0156]; conditions: max 3 µM
In short: as §1

Paclitaxel = compound: CC(=O)O[C@H]1C(=O)[C@@]2(C)[C@H]([C@H](OC(=O)c3ccccc3)[C@]3(O)C[C@H](OC(=O)[C@H](O)[C@@H](NC(=O)c4ccccc4)c4ccccc4)C(C)=C1C3(C)C)[C@]1(OC(C)=O)CO[C@@H]1C[C@@H]2O [Paclitaxel]; conditions: max 3 µM
In short: as §1

5-Fluorouracil = compound: O=c1[nH]cc(F)c(=O)[nH]1 [5-Fluorouracil]; conditions: max 20 µM
In short: as §1

Taselisib = compound: Cc1nc(-c2cn3c(n2)-c2ccc(-c4cnn(C(C)(C)C(N)=O)c4)cc2OCC3)n(C(C)C)n1 [Taselisib]; conditions: max 10 µM
In short: as §1

AZD6738 = compound: C[C@@H]1COCCN1C2=NC(=NC(=C2)C3(CC3)[S@](=N)(=O)C)C4=C5C=CNC5=NC=C4 [AZD6738]; conditions: max 10 µM
In short: as §1

| Cell Line | IC50, cell viability 72 h (AZD1775) | IC50, cell viability 72 h (SRA737) | IC50, cell viability 72 h (Lapatinib) | IC50, cell viability 72 h (AZD4320) | IC50, cell viability 72 h (SN-38) | IC50, cell viability 72 h (Carboplatin) | IC50, cell viability 72 h (Gefitinib) | IC50, cell viability 72 h (Palbociclib) | IC50, cell viability 72 h (Dasatinib) | IC50, cell viability 72 h (Trametinib) | IC50, cell viability 72 h (AZD5363) | IC50, cell viability 72 h (AZD5153) | IC50, cell viability 72 h (MK-2206) | IC50, cell viability 72 h (AZD1390) | IC50, cell viability 72 h (Olaparib) | IC50, cell viability 72 h [1] | IC50, cell viability 72 h (Savolitinib) | IC50, cell viability 72 h (Selumetinib) | IC50, cell viability 72 h (Etoposide) | IC50, cell viability 72 h (Crizotinib) | IC50, cell viability 72 h (AZD7648) | IC50, cell viability 72 h (AZD2811) | IC50, cell viability 72 h (Gemcitabine) | IC50, cell viability 72 h (Venetoclax) | IC50, cell viability 72 h (Doxorubicin) | IC50, cell viability 72 h (AZD8186) | IC50, cell viability 72 h (Prexasertib) | IC50, cell viability 72 h (SG3199) | IC50, cell viability 72 h (Alisertib) | IC50, cell viability 72 h (AZD5991) | IC50, cell viability 72 h (AZD0156) | IC50, cell viability 72 h (Paclitaxel) | IC50, cell viability 72 h (5-Fluorouracil) | IC50, cell viability 72 h (Taselisib) | IC50, cell viability 72 h (AZD6738) |
| --- | --- | --- | --- | --- | --- | --- | --- | --- | --- | --- | --- | --- | --- | --- | --- | --- | --- | --- | --- | --- | --- | --- | --- | --- | --- | --- | --- | --- | --- | --- | --- | --- | --- | --- | --- |
| NTERA-2-cl-D1 (Other Solid Carcinomas) | > 3000 nM | > 10000 nM | > 10000 nM | > 1000 nM | 5.92 nM | > 10000 nM | > 10000 nM | > 10000 nM | > 2000 nM | > 1000 nM | > 10000 nM | 532 nM | > 10000 nM | > 300 nM | > 10000 nM | > 5000 nM | > 1000 nM | > 10000 nM | > 10000 nM | > 10000 nM | > 10000 nM | > 1000 nM | > 300 nM | > 1000 nM | 23.6 nM | > 10000 nM | > 1000 nM | > 1 nM | 453 nM | > 1000 nM | > 3000 nM | 415 nM | > 20000 nM | > 10000 nM | > 10000 nM |
| OVKATE (Ovarian Carcinoma) | > 3000 nM | > 10000 nM | > 10000 nM | > 1000 nM | > 300 nM | > 10000 nM | > 10000 nM | > 10000 nM | > 2000 nM | > 1000 nM | > 10000 nM | > 1000 nM | > 10000 nM | > 300 nM | > 10000 nM | > 5000 nM | > 1000 nM | > 10000 nM | > 10000 nM | > 10000 nM | > 10000 nM | > 1000 nM | > 300 nM | > 1000 nM | > 1000 nM | > 10000 nM | > 1000 nM | > 1 nM | > 10000 nM | > 1000 nM | > 3000 nM | > 3000 nM | > 20000 nM | > 10000 nM | > 10000 nM |
| RPMI-8402 (T-Lymphoblastic Leukemia) | 183 nM | 1320 nM | 4400 nM | 247 nM | 2.43 nM | > 10000 nM | 9050 nM | 300 nM | > 2000 nM | > 1000 nM | 2500 nM | 63.1 nM | 1150 nM | > 300 nM | > 10000 nM | 4090 nM | > 1000 nM | > 10000 nM | 158 nM | 1630 nM | > 10000 nM | 33.3 nM | 23.5 nM | > 1000 nM | 68.1 nM | 5450 nM | 5.84 nM | > 1 nM | 214 nM | 504 nM | > 3000 nM | 6.86 nM | 9930 nM | 1030 nM | 1300 nM |
| SBC-3 (Small Cell Lung Carcinoma) | 822 nM | > 10000 nM | > 10000 nM | > 1000 nM | 2.25 nM | > 10000 nM | > 10000 nM | 4820 nM | > 2000 nM | > 1000 nM | > 10000 nM | 64.6 nM | > 10000 nM | > 300 nM | > 10000 nM | > 5000 nM | > 1000 nM | > 10000 nM | 313 nM | 3450 nM | > 10000 nM | 636 nM | 14.7 nM | > 1000 nM | 71.7 nM | > 10000 nM | 136 nM | > 1 nM | 421 nM | > 1000 nM | > 3000 nM | 3.8 nM | 4540 nM | 2580 nM | 5850 nM |
| SK-MEL-24 (Melanoma) | > 3000 nM | > 10000 nM | > 10000 nM | > 1000 nM | 23.9 nM | > 10000 nM | > 10000 nM | > 10000 nM | > 2000 nM | 46.3 nM | > 10000 nM | > 1000 nM | > 10000 nM | > 300 nM | > 10000 nM | 3270 nM | > 1000 nM | 2770 nM | > 10000 nM | > 10000 nM | > 10000 nM | > 1000 nM | 193 nM | > 1000 nM | 701 nM | > 10000 nM | 575 nM | > 1 nM | > 10000 nM | > 1000 nM | > 3000 nM | 738 nM | > 20000 nM | 5000 nM | > 10000 nM |
